Source: patent publication US11472803B2, “7-substituted 1-aryl-naphthyridine-3-carboxylic acid amides and use thereof” (Bayer Aktiengesellschaft, priority 2016, dated 2022)

Experiments:
human M2 receptor [1] = biological target: T1, human M2 receptor (Homo sapiens, UniProt P08172); experiment: Functional M2-GIRK1/4 activation test: positive cooperativity (α factor), shift of acetylcholine dose-response curve; assay type: cell-based; settings: Allosteric EC50 shift of acetylcholine 8-point dose-response curve; CHO-DUKX-M2-GIRK cells; α>1 = positive cooperativity
T1 construct: expressed in transfected cells; host or cells: CHO-DUKX (CHO-DUKX-M2-GIRK)
T1 sequence (P08172 1-466): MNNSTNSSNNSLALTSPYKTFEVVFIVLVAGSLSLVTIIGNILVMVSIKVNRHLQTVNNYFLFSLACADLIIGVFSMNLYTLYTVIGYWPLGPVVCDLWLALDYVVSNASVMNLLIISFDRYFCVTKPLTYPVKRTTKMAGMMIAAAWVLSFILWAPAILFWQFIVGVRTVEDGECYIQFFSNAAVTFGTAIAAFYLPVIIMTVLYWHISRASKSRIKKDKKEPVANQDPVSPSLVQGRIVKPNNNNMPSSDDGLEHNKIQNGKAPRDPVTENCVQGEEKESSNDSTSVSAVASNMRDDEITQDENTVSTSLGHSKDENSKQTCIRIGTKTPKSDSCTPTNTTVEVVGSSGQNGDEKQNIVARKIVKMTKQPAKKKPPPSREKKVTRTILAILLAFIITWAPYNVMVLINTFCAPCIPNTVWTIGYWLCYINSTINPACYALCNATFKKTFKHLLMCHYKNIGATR
Outline: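 CHO-DUKX cells stably expressing human M2 and GIRK1/4, loaded with voltage-sensitive dye at room temperature; hyperpolarization followed by fluorescence. Each test-substance concentration, added first, combined with an 8-point acetylcholine dose-response; shift of the acetylcholine curve analysed by allosteric EC50 shift model to give cooperativity factor α.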

human M2 receptor [2] = biological target: T1, human M2 receptor; experiment: Functional M2-GIRK1/4 activation test: allosteric potency (EC50) and efficiency at EC20 acetylcholine; assay type: cell-based; settings: CHO-DUKX-M2-GIRK cells; for EC50: voltage-sensitive dye, acetylcholine at EC20, in some cases mean of two or more determinations; for Emax / Efficiency: boosting of the acetylcholine effect at EC20 acetylcholine concentration
Outline: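 CHO-DUKX cells stably expressing human M2 and GIRK1/4; membrane potential tracked with voltage-sensitive dye at room temperature. Compound added 50 s before acetylcholine at its EC20, then hyperpolarization read 60 s. EC50 (allosteric potency) and efficiency (boost of EC20 ACh effect) from 4-parameter Hill fit.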

Row | SMILES | Cooperativity (alpha factor) (human M2 receptor [1]) | EC50 (human M2 receptor [2]) [nM] | Emax (human M2 receptor [2]) [%] | Efficiency (human M2 receptor [2]) [%]
1 | CC(C)(C)C(C)(C)NC(=O)c1cn(-c2c(F)cc(F)cc2F)c2nc(N3C[C@@H](O)[C@H](O)C3)c(F)cc2c1=O [Example 165, 7-[(3R,4R)-3,4-Dihydroxypyrrolidin-1-yl]-6-fluoro-4-oxo-1-(2,4,6-trifluorophenyl)-N-(2,3,3-trimethylbutan-2-yl)-1,4-dihydro-1,8-naphthyridine-3-carboxamide] | 48 | 2.4 | 100 | –
2 | CC(C)C[C@@H](NC(=O)c1cn(-c2c(F)cc(F)cc2F)c2nc(N3C[C@@H](O)[C@H](O)C3)c(F)cc2c1=O)C(F)(F)F [Example 14, 7-[(3R,45)-3,4-dihydroxypyrrolidin-1-yl]-6-fluoro-4-oxo-N-[(2R)-1,1,1-trifluoro-4-methylpentan-2-yl]-1-(2,4,6-trifluorophenyl)-1,4-dihydro-1,8-naphthyridine-3-carboxamide] | 49 | 5.5 | 100 | –
3 | C[C@@H](NC(=O)c1cn(-c2c(F)cc(F)cc2Cl)c2nc(N3C[C@@H](O)[C@H](O)C3)c(F)cc2c1=O)C(F)(F)F (single isomer, unassigned) [Example 228] | 33 | 6.4 | – | 93
4 | CCC(NC(=O)c1cn(-c2c(F)cc(F)cc2F)c2nc(N3CC(CO)(CO)C3)c(F)cc2c1=O)C(F)(F)C(F)(F)F (racemic) [Example 172, 7-[3,3-Bis(hydroxymethyl)azetidin-1-yl]-6-fluoro-4-oxo-N-[1,1,1,2,2-pentafluoropentan-3-yl]-1-(2,4,6-trifluorophenyl)-1,4-dihydro-1,8-naphthyridine-3-carboxamide] | 35 | 3.3 | – | 94
5 | O=C(N[C@@H](C1CC1)C(F)(F)F)c1cn(-c2c(F)cc(F)cc2F)c2nc(N3CC(O)C3)c(F)cc2c1=O [Example 54, N-[(1S)-1-Cyclopropyl-2,2,2-trifluoroethyl]-6-fluoro-7-(3-hydroxyazetidin-1-yl)-4-oxo-1-(2,4,6-trifluorophenyl)-1,4-dihydro-1,8-naphthyridine-3-carboxamide] | 30 | 25 | 100 | –
6 | CC[C@H](NC(=O)c1cn(-c2c(F)cc(F)cc2F)c2nc(N3C[C@@H](O)[C@@H](O)C3)c(F)cc2c1=O)C(F)(F)F [Example 98, 7-[(3R,4S)-3,4-Dihydroxypyrrolidin-1-yl]-6-fluoro-4-oxo-N-[(2S)-1,1,1-trifluorobutan-2-yl]-1-(2,4,6-trifluorophenyl)-1,4-dihydro-1,8-naphthyridine-3-carboxamide] | 50 | 14.3 | 98 | –
7 | O=C(NC(C1CC1)C(F)(F)C(F)(F)F)c1cn(-c2c(F)cc(F)cc2F)c2nc(N3CC(CO)(CO)C3)c(F)cc2c1=O (single isomer, unassigned) [Example 207, 7-[3,3-bis(hydroxymethyl)azetidin-1-yl]-N-[1-cyclopropyl-2,2,3,3,3-pentafluoropropyl]-6-fluoro-4-oxo-1-(2,4,6-trifluorophenyl)-1,4-dihydro-1,8-naphthyridine-3-carboxamide] | 24 | 3.3 | – | 100
8 | CC(NC(=O)c1cn(-c2c(F)cc(F)cc2F)c2nc(N3CCCC[C@@H]3CO)c(F)cc2c1=O)C(F)(F)C(F)(F)F (single isomer, unassigned) [Example 185] | 13 | 6.4 | 83 | –
9 | CC(NC(=O)c1cn(-c2c(F)cc(F)cc2F)c2nc(N3CCC(O)(CO)CC3)c(F)cc2c1=O)C(F)(F)C(F)(F)F (single isomer, unassigned) [Example 186, 6-Fluoro-7-[4-hydroxy-4-(hydroxymethyl)piperidin-1-yl]-4-oxo-N-[3,3,4,4,4-pentafluorobutan-2-yl]-1-(2,4,6-trifluorophenyl)-1,4-dihydro-1,8-naphthyridine-3-carboxamide] | 20 | 5.8 | 87 | –
10 | O=C(NC(C1CC1)(C1CC1)C(F)(F)C(F)(F)F)c1cn(-c2c(F)cc(F)cc2F)c2nc(N3C[C@@H](O)[C@H](O)C3)c(F)cc2c1=O [Example 208, N-(1,1-dicyclopropyl-2,2,3,3,3-pentafluoropropyl)-7-[(3R,4R)-3,4-dihydroxypyrrolidin-1-yl]-6-fluoro-4-oxo-1-(2,4,6-trifluorophenyl)-1,4-dihydro-1,8-naphthyridine-3-carboxamide] | 27 | 1.8 | 100 | –
11 | CC(C)[C@H](C)NC(=O)c1cn(-c2c(F)cc(F)cc2F)c2nc(N3C[C@@H](O)[C@H](O)C3)c(F)cc2c1=O [Example 16, 7-[(3R,4R)-3,4-dihydroxypyrrolidin-1-yl]-6-fluoro-N-[(2S)-3-methylbutan-2-yl]-4-oxo-1-(2,4,6-trifluorophenyl)-1,4-dihydro-1,8-naphthyridine-3-carboxamide] | 42 | 8.45 | 99 | –
12 | CCC(NC(=O)c1cn(-c2c(F)cc(F)cc2F)c2nc(N3CC(CO)(CO)C3)c(F)cc2c1=O)C(F)(F)C(F)(F)F (racemic) [Example 173, 7-[3,3-Bis(hydroxymethyl)azetidin-1-yl]-6-fluoro-4-oxo-N-[1,1,1,2,2-pentafluoropentan-3-yl]-1-(2,4,6-trifluorophenyl)-1,4-dihydro-1,8-naphthyridine-3-carboxamide] | 39 | 2.5 | – | 99
13 | C[C@H](NC(=O)c1cn(-c2c(F)cc(F)cc2F)c2nc(N3C[C@@H](O)[C@H](O)C3)c(F)cc2c1=O)C(F)(F)F [Example 18, 7-[(3R,4R)-3,4-dihydroxypyrrolidin-1-yl]-6-fluoro-4-oxo-1-(2,4,6-trifluorophenyl)-N-[(2S)-1,1,1-trifluoropropan-2-yl]-1,4-dihydro-1,8-naphthyridine-3-carboxamide] | 43 | 20.5 | 99 | –
14 | CC(NC(=O)c1cn(-c2c(F)cc(F)cc2F)c2nc(N3CC(CO)(CO)C3)c(F)cc2c1=O)C(F)(F)C(F)(F)F (racemic) [Example 170, 7-[3,3-Bis(hydroxymethyl)azetidin-1-yl]-6-fluoro-4-oxo-N-[3,3,4,4,4-pentafluorobutan-2-yl]-1-(2,4,6-trifluorophenyl)-1,4-dihydro-1,8-naphthyridine-3-carboxamide] | 38 | 8.1 | – | 100
15 | CC(C)(NC(=O)c1cn(-c2c(F)cc(F)cc2F)c2nc(N3C[C@@H](O)[C@H](O)C3)c(F)cc2c1=O)C(F)(F)C(F)(F)F [Example 164, 7-[(3R,4R)-3,4-Dihydroxypyrrolidin-1-yl]-6-fluoro-4-oxo-N-(3,3,4,4,4-pentafluoro-2-methyl-butan-2-yl)-1-(2,4,6-trifluorophenyl)-1,4-dihydro-1,8-naphthyridine-3-carboxamide] | 45 | 2 | 100 | –
16 | O=C(NC12CC(C1)C2)c1cn(-c2c(F)cc(F)cc2F)c2nc(N3C[C@@H](O)[C@H](O)C3)c(F)cc2c1=O [Example 12, N-(bicyclo[1.1.1]pent-1-yl)-7-[(3R,4R)-3,4-dihydroxypyrrolidin-1-yl]-6-fluoro-4-oxo-1-(2,4,6-trifluorophenyl)-1,4-dihydro-1,8-naphthyridine-3-carboxamide] | 40 | 20 | 90 | –
17 | O=C(N[C@@H](C1CC1)C(F)(F)F)c1cn(-c2c(F)cc(F)cc2F)c2nc(N3C[C@@H](O)[C@H](O)C3)c(F)cc2c1=O [Example 7, N-[(1S)-1-Cyclopropyl-2,2,2-trifluoroethyl]-7-[(3R,4R)-3,4-dihydroxypyrrolidin-1-yl]-6-fluoro-4-oxo-1-(2,4,6-trifluorophenyl)-1,4-dihydro-1,8-naphthyridine-3-carboxamide] | 57 | 5.64 | 93 | –
18 | CC(C)C(NC(=O)c1cn(-c2c(F)cc(F)cc2F)c2nc(N3C[C@@H](O)[C@H](O)C3)c(F)cc2c1=O)C(C)C [Example 24, 7-[(3R,4R)-3,4-dihydroxypyrrolidin-1-yl]-N-(2,4-dimethylpentan-3-yl)-6-fluoro-4-oxo-1-(2,4,6-trifluorophenyl)-1,4-dihydro-1,8-naphthyridine-3-carboxamide] | 57 | 1.35 | 100 | –
